Data: patent US20060160864A1, “Acrylamide derivative, process for producing the same, and use” (priority 2003, published 2006)

molecular target: T1, human CCR5 (Homo sapiens, UniProt P51681); experiment: Inhibition of [125I]-RANTES binding to CCR5/CHO cells (CCR5 antagonist activity); conditions: 40 min, test compound 1 μM, [125I]-RANTES 100 pM, CCR5/CHO strains, room temperature, read-out: Binding Inhibitory Ratio (%)
T1 construct: expressed in transfected cells
Description: Cloning of a CCR5 gene was conducted from human spleen cDNA by a PCR method. Using 0.5 ng of spleen cDNA (Toyobo Co., Ltd., QUICK-Clone cDNA) as a template, the PCR reaction was carried out in a DNA Thermal Cycler 480 (Perkin Elmer) using a TaKaRa EX Taq (Takara Shuzo Co., Ltd.) (reaction conditions: 30 cycles of treatments at 95° C. for 1 minute, at 60° C. for 1 minute, and at 75° C. for 5 minutes) by adding 25 pmol of primers, SEQ ID NO. 1 (sequence length: 34; sequence type: nucleic acid; number of chains: a single chain; topology: linear; sequence kind: other nucleic acid, synthetic DNA) described in Experimental Example (1) of WO 99/32100, and SEQ ID NO. 2 (sequence length: 34; sequence type: nucleic acid; number of chains: a single chain; topology: linear; sequence kind: other nucleic acid, synthetic DNA) described in Experimental Example (1) of WO 99/32100, respectively, which were prepared by referring to the base sequence of the CCR5 gene described by Samson et al. (Biochemistry 35 (11), 3362-3367 (1996)). The PCR products were subjected to agarose gel electrophoresis to collect DNA fragments of about 1.0 kb. Then, the CCR5 gene was cloned using an Original TA Cloning Kit (Funakoshi Co., Ltd.).
The plasmids obtained above were digested with restriction enzymes XbaI (Takara Shuzo Co., Ltd.) and BamHI (Takara Shuzo Co., Ltd.), and subjected to agarose gel electrophoresis to collect DNA fragments of about 1.0 kb. The DNA fragments and a plasmid pcDNA3.1 (Funakoshi Co., Ltd.) for expression in animal cells, which was previously digested with XbaI and BamHI, were mixed and ligated by DNA Ligation Kit Ver.2 (Takara Shuzo Co., Ltd.). Transformation of E. coli JM109 competent cells (Takara Shuzo Co., Ltd.) gave plasmid pCKR5.
CHO-K1 cells grown in a 750 ml tissue culture flask (Becton Dickinson) using Ham's F12 medium (Nihon Pharmaceutical Co., Ltd.) containing 10% fetal bovine serum (Lifetech Oriental) were collected from the flask by using 0.5 g/L trypsin-0.2 g/L EDTA (Lifetech Oriental). The cells were then washed with PBS (Lifetech Oriental), centrifuged (1000 rpm, 5 minutes), and suspended in PBS. Next, DNA was introduced into the cells using Gene Pulser (Bio-Rad Laboratories Inc.) under the following conditions. Namely, 8×10^6 cells and 10 μg of plasmid pCKR5 for expression of human CCR5 were added into a cuvette of a 0.4 cm-gap, and electroporation was carried out at an electric voltage of 0.25 kV and a capacitance of 960 μF. Subsequently, the cells were transferred into Ham's F12 medium containing 10% fetal bovine serum, and incubated for 24 hours. The cells were again collected, centrifuged, and then suspended in Ham's F12 medium containing 10% fetal bovine serum and Geneticin (Lifetech Oriental) at a concentration of 500 μg/ml. The suspension of cells was diluted to a concentration of 10^4 cells/ml, and inoculated on a 96-well plate (Becton Dickinson) to give Geneticin-resistant strains.
Subsequently, the Geneticin-resistant strains were cultured in the 96-well plate (Becton Dickinson), and then CCR5-expressing cells were selected from the resistant strains. Namely, an assay buffer (Ham's F12 medium containing 0.5% BSA, and 20 mM HEPES (Wako Pure Chemical Industries, Ltd., pH 7.2)) containing 200 pM [^125I]-RANTES (Amersham) as a ligand was added to each well and the binding reaction was carried out at room temperature for 40 minutes. Each well plate containing the cells was washed with ice-cooled PBS, and then to each well was added 1 M NaOH in an amount of 50 μl/well, which was stirred. The cells to which the ligand bound specifically, i.e., CCR5/CHO strains, were selected by measurement of radioactivity by γ-counter.
The CCR5/CHO strains were inoculated on a 96-well microplate at a concentration of 5×10^4 cells/well, respectively and were cultured for 24 hours. […]

T1 sequence (P51681 whole entry): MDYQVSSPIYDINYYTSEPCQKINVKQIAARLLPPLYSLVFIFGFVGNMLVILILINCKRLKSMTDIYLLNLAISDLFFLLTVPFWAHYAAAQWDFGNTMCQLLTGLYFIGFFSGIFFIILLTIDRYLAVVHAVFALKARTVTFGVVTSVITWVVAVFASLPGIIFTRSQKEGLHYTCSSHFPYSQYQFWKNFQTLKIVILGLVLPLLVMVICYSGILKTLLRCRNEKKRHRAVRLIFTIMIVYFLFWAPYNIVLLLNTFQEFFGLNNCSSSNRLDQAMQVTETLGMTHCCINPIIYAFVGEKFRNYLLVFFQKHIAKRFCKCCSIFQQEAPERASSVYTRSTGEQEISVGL

SMILES | inhibition at 1 µM [%]
CCCCOCCOc1ccc(-c2ccc(N3CCC(C(=O)OC)C3)c(/C=C(\C)C(=O)Nc3ccc([S@@+]([O-])Cc4cncn4CCC)cc3)c2)cc1 (single isomer, unassigned) [Compound 57, (Ss)-(2E)-3-[4′-(2-butoxyethoxy)-4-[3-(methoxycarbonyl)pyrrolidin-1-yl]-1,1′-biphenyl-3-yl]-2-methyl-N-[4-[[(1-propyl-1H-imidazol-5-yl)methyl]sulfinyl]phenyl]acrylamide] | 100
CCCCOCCOc1ccc(-c2ccc(N3CCC(C(=O)O)C3)c(/C=C(\C)C(=O)Nc3ccc([S@@+]([O-])Cc4cncn4CCC)cc3)c2)cc1 (single isomer, unassigned) [Compound 59, (Ss)-(2E)-3-[4′-(2-butoxyethoxy)-4-(3-carboxypyrrolidin-1-yl)-1,1′-biphenyl-3-yl]-2-methyl-N-[4-[[(1-propyl-1H-imidazol-5-yl)methyl]sulfinyl]phenyl]acrylamide] | 89
CCCCOCCOc1ccc(-c2ccc(N3CCCC3C)c(/C=C(\C)C(=O)Nc3ccc([S@@+]([O-])Cc4cncn4CCC)cc3)c2)cc1 (some centres unmarked) [Compound 17, (Ss)-(2E)-3-[4′-(2-butoxyethoxy)-4-(2-methylpyrrolidin-1-yl)-1,1′-biphenyl-3-yl]-2-methyl-N-[4-[[(1-propyl-1H-imidazol-5-yl)methyl]sulfinyl]phenyl]acrylamide] | 100
CCCCOCCOc1ccc(-c2ccc(N3CCC(C)C3)c(/C=C(\C)C(=O)Nc3ccc([S@@+]([O-])Cc4cncn4CCC)cc3)c2)cc1 (some centres unmarked) [Compound 23, (Ss)-(2E)-3-[4′-(2-butoxyethoxy)-4-(3-methylpyrrolidin-1-yl)-1,1′-biphenyl-3-yl]-2-methyl-N-[4-[[(1-propyl-1H-imidazol-5-yl)methyl]sulfinyl]phenyl]acrylamide] | 100
CCCCOCCOc1ccc(-c2ccc(N3CCCC3)c(/C(C)=C/C(=O)Nc3ccc([S@@+]([O-])Cc4cncn4CCC)cc3)c2)cc1 [Compound 35, (S)-(2E)-3-[4′-(2-butoxyethoxy)-4-pyrrolidin-1-yl-1,1′-biphenyl-3-yl]-N-[4-[[(1-propyl-1H-imidazol-5-yl)methyl]sulfinyl]phenyl]but-2-enoic amide] | 100
CCCCOCCOc1ccc(-c2ccc(N3CCC(COC(C)=O)C3)c(/C=C(\C)C(=O)Nc3ccc([S@@+]([O-])Cc4cncn4CCC)cc3)c2)cc1 (some centres unmarked) [Compound 38, (Ss)-(2E)-3-[4-[3-(acetoxymethyl)pyrrolidin-1-yl]-4′-(2-butoxyethoxy)-1,1′-biphenyl-3-yl]-2-methyl-N-[4-[[(1-propyl-1H-imidazol-5-yl)methyl]sulfinyl]phenyl]acrylamide] | 93
CCCCOCCOc1ccc(-c2ccc(N3CCC(CO)C3)c(/C=C(\C)C(=O)Nc3ccc([S@@+]([O-])Cc4cncn4CCC)cc3)c2)cc1 (some centres unmarked) [Compound 39, (Ss)-(2E)-3-[4′-(2-butoxyethoxy)-4-[3-(hydroxymethyl)pyrrolidin-1-yl]-1,1′-biphenyl-3-yl]-2-methyl-N-[4-[[(1-propyl-1H-imidazol-5-yl)methyl]sulfinyl]phenyl]acrylamide] | 99
CCCCOCCOc1ccc(-c2ccc(N3CCC(C(=O)OC)C3)c(/C=C(\C)C(=O)Nc3ccc([S@@+]([O-])Cc4cncn4CCC)cc3)c2)cc1 (some centres unmarked) [Compound 40, (Ss)-(2E)-3-[4′-(2-butoxyethoxy)-4-[3-(methoxycarbonyl)pyrrolidin-1-yl]-1,1′-biphenyl-3-yl]-2-methyl-N-[4-[[(1-propyl-1H-imidazol-5-yl)methyl]sulfinyl]phenyl]acrylamide] | 100
CCCCOCCOc1ccc(-c2ccc(N3CC(C)C(C)C3)c(/C=C(\C)C(=O)Nc3ccc([S@@+]([O-])Cc4cncn4CCC)cc3)c2)cc1 (stereo partly drawn) [Compound 42, (S)-(2E)-3-[4′-(2-butoxyethoxy)-4-(3,4-dimethylpyrrolidin-1-yl)-1,1′-biphenyl-3-yl]-2-methyl-N-[4-[[(1-propyl-1H-imidazol-5-yl)methyl]sulfinyl]phenyl]acrylamide] | 100
CCCCOCCOc1ccc(-c2ccc(N3CCC(C(N)=O)C3)c(/C=C(\C)C(=O)Nc3ccc([S@@+]([O-])Cc4cncn4CCC)cc3)c2)cc1 (some centres unmarked) [Compound 43, (Ss)-(2E)-3-[4′-(2-butoxyethoxy)-4-(3-carbamoylpyrrolidin-1-yl)-1,1′-biphenyl-3-yl]-2-methyl-N-[4-[[(1-propyl-1H-imidazol-5-yl)methyl]sulfinyl]phenyl]acrylamide] | 86
CCCCOCCOc1ccc(-c2cnc(N3CCCC3)c(/C=C(\C)C(=O)Nc3ccc([S@@+]([O-])Cc4cncn4CCC)cc3)c2)cc1 [Compound 47, (S)-(2E)-3-[5-[4-(2-butoxyethoxy)phenyl]-2-pyrrolidin-1-ylpyridin-3-yl]-2-methyl-N-[4-[[(1-propyl-1H-imidazol-5-yl)methyl]sulfinyl]phenyl]acrylamide] | 96
CCCCOCCOc1ccc(-c2cnc(N3CCC(C)C3)c(/C=C(\C)C(=O)Nc3ccc([S@@+]([O-])Cc4cncn4CCC)cc3)c2)cc1 (some centres unmarked) [Compound 48, (Ss)-(2E)-3-[5-[4-(2-butoxyethoxy)phenyl]-2-(3-methylpyrrolidin-1-yl)pyridin-3-yl]-2-methyl-N-[4-[[(1-propyl-1H-imidazol-5-yl)methyl]sulfinyl]phenyl]acrylamide] | 98
CCCCOCCOc1ccc(-c2cnc(N3CCC(COC(C)=O)C3)c(/C=C(\C)C(=O)Nc3ccc([S@@+]([O-])Cc4cncn4CCC)cc3)c2)cc1 (some centres unmarked) [Compound 49, (Ss)-(2E)-3-[2-[3-(acetoxymethyl)pyrrolidin-1-yl]-5-[4-(2-butoxyethoxy)phenyl]pyridin-3-yl]-2-methyl-N-(4-[[(1-propyl-1H-imidazol-5-yl)methyl]sulfinyl]phenyl]acrylamide] | 100

same assay, conditions: test compound 1 μM; [125I]-RANTES 100 pM; CCR5/CHO strains; room temperature, 40 minutes

SMILES | Binding Inhibitory Ratio (%)
CCCCOCCOc1ccc(-c2ccc(N3CCC(C(=O)OC)C3)c(/C=C(\C)C(=O)Nc3ccc([S@@+]([O-])Cc4cncn4CCC)cc3)c2)cc1 (single isomer, unassigned) [Compound 58, (Ss)-(2E)-3-[4′-(2-butoxyethoxy)-4-[3-(methoxycarbonyl)pyrrolidin-1-yl]-1,1′-biphenyl-3-yl]-2-methyl-N-[4-[[(1-propyl-1H-imidazol-5-yl)methyl]sulfinyl]phenyl]acrylamide] | 95
CCCCOCCOc1ccc(-c2ccc(N3CCC(C(=O)O)C3)c(/C=C(\C)C(=O)Nc3ccc([S@@+]([O-])Cc4cncn4CCC)cc3)c2)cc1 (single isomer, unassigned) [Compound 60, (Ss)-(2E)-3-[4′-(2-butoxyethoxy)-4-(3-carboxypyrrolidin-1-yl)-1,1′-biphenyl-3-yl]-2-methyl-N-[4-[[(1-propyl-1H-imidazol-5-yl)methyl]sulfinyl]phenyl]acrylamide] | 91
CCCCOCCOc1ccc(-c2ccc(N3CCC(O)C3)c(/C=C(\C)C(=O)Nc3ccc([S@@+]([O-])Cc4cncn4CCC)cc3)c2)cc1 (some centres unmarked) [Compound 26] | 90
CCCCOCCOc1ccc(-c2cc(/C=C(\C)C(=O)Nc3ccc([S@@+]([O-])Cc4cncn4CCC)cc3)c3c(c2)CCCN3C)cc1 [Compound 29, (S)-(2E)-3-[6-[4-(2-butoxyethoxy)phenyl]-1-methyl-1,2,3,4-tetrahydroquinolin-8-yl]-2-methyl-N-[4-[[(1-propyl-1H-imidazol-5-yl)methyl]sulfinyl]phenyl]-2-acrylic amide] | 100
